Test results published in article PMC7782499, “Progerinin, an optimized progerin-lamin A binding inhibitor, ameliorates premature senescence phenotypes of Hutchinson-Gilford progeria syndrome” (Communications Biology, 2021).

Assays:
[1] = Liver microsomal stability, mouse; format: in vitro ADME; conditions: liver microsomes, read-out: Liver microsomal stability (% remaining during 30min)
Method: (§1) For PK analysis, 5 mg/kg of JH4 in 10% DMSO, 5% Tween 90, and 95% saline solution were intravenously injected and 10 mg/kg of JH4 in 10% NMP and 90% PEG400 solution were orally delivered. At pre-set time-points, blood concentration of JH4 was determined by LC-MS/MS analysis[22],[23]. Other chemicals were also tested using similar protocol. In vitro ADME studies (plasma protein binding, CYP inhibition, microsomal stability, plasma stability, and hERG inhibition) were performed by New Drug Development Center (Daegu, Korea) using standard protocols[24],[25].

progerin-lamin A binding = biological target: T1, progerin-lamin A binding (Homo sapiens, UniProt P02545); assay: GST pull-down assay of progerin-lamin A binding; conditions: 5 μM
T1 construct: expressed in transfected cells; host or cells: HEK293 (GFP-progerin); the GST-lamin A bait is a recombinant protein, with E. coli B834 (DE3) named for the lamin A/C fragments
T1 sequence (P02545 1-611 isoform P02545-6): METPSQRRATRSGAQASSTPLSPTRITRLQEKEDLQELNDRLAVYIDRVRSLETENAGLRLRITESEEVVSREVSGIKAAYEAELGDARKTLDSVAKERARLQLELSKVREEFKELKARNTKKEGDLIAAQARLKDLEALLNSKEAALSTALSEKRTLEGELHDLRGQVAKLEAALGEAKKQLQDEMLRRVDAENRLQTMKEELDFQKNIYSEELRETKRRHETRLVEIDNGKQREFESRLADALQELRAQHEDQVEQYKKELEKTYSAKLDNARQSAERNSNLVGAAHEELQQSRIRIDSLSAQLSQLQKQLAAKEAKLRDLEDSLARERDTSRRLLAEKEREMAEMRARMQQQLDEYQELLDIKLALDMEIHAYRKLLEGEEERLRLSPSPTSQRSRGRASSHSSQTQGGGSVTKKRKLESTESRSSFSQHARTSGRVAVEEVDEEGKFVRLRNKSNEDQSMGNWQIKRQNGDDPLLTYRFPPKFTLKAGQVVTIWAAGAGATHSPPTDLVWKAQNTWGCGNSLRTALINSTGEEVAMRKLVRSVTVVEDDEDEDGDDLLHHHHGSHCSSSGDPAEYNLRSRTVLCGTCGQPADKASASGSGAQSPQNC
Method: Fig. 1 SLC-D011 ameliorates premature aging features of HGPS. A. HEK293 cells were transiently transfected with expression vector encoding wild-type lamin A (WT-LA), lamin A-C661A (LA-C661A), progerin, or progerin-C611A. LA-C661A or progerin-C611A with point mutation in CaaX motif was predicted to be lack of farnesylation, […] that of authentic WT-LA or progerin. GFP-conjugated empty expression vector was used as a negative control. Cells were visualized at 24 h after transfection. B Transient transfection of HEK293 cells with expression vector encoding progerin or progerin-G611A leads to reduced expression of H3K9me3 (n = 3 independent experiments; two-tailed Student’s t test). C. JH4 derivatives (JH010 and SLC-D011(D011)) inhibit lamin A and progerin interaction. For binding inhibition assay, bead-conjugated lamin A (GST-LA) was incubated with HEK293 cells, transiently transfected with GFP-progerin (PG), and treated with indicated chemicals. Actin was used as a loading control. PPT, co-precipitated materials with recombinant proteins; Sup supernatant. 5 μM of each chemical was used for binding assay. […] H3K9me3 reduction is a well-known marker for premature aged cells. Thus, H3K9me3 expression was evaluated by immunostaining. […] Cell viability was determined by MTT assay after incubation with chemicals for 7 days (n = 3 independent experiments; two-tailed Student’s t test). […]

[2] = Liver microsomal stability, human; format: in vitro ADME; conditions: liver microsomes, read-out: Liver microsomal stability (% remaining during 30min)
Method: as §1, with “At” for “For PK analysis, 5 mg/kg of JH4 in 10% DMSO, 5% Tween 90, and 95% saline solution were intravenously injected and 10 mg/kg of JH4 in 10% NMP and 90% PEG400 solution were orally delivered. At”

**Q.** What does the source list for `CC1(C)Oc2cc3oc(=O)ccc3cc2C[C@@H]1OC/C=C/c1ccccc1` [SLC-D011]?
**A.** remaining at 0.5 h [1]: 59.7%; Effect on interaction of progerin and lamin A (progerin-lamin A binding): could block the interaction of progerin and lamin A; remaining at 0.5 h [2]: 21.5%
